Laboratory results reported in US8828988B2 (Tetraphase Pharmaceuticals, Inc., priority 2009, dated 2014).
≈ marks a conversion by molar mass, not a printed value. Like-named read-outs stand apart in the source and are kept apart here.

How the values were obtained:
[1] = test system: E. coli S30 extract system, coupled in vitro transcription/translation, firefly luciferase readout; experiment: In vitro transcription/translation (TnT) assay; type: biochemical
[2] = test system: Streptococcus pneumoniae SP106, ATCC 49619; experiment: MIC assay, SP106; type: cell-based
[3] = test system: Staphylococcus aureus SA161, HA-MRSA, tetracycline-resistant, tet(M); experiment: MIC assay, SA161; type: cell-based; conditions: Table 8, read-out: MIC S. aureus MRSA, tetM
[4] = test system: Staphylococcus aureus SA158, tetracycline-resistant tet(K); experiment: MIC assay, SA158; type: cell-based; conditions: Table 8, read-out: MIC S. aureus tetK
[5] = test system: Escherichia coli EC107, ATCC 25922; experiment: MIC assay, EC107; type: cell-based; conditions: ATCC25922, Table 8, read-out: MIC E. coli ATCC 25922
[6] = test system: Enterococcus faecalis EF103, ATCC 29212; experiment: MIC assay, EF103; type: cell-based; conditions: Enterococcus faecalis, ATCC29212; Table 8; read-out: MIC E. faecalis ATCC 29212
[7] = test system: Escherichia coli EC155, tetracycline-resistant, tet(A); experiment: MIC assay, EC155; type: cell-based
[8] = test system: Enterococcus faecalis EF159, tetracycline-resistant, tet(M); experiment: MIC assay, EF159; type: cell-based
[9] = test system: Staphylococcus aureus SA101, ATCC 29213, MSSA; experiment: MIC assay, SA101; type: cell-based
[10] = test system: Streptococcus pneumoniae SP160, tetracycline-resistant, tet(M); experiment: MIC assay, SP160; type: cell-based; conditions: Table 8, read-out: MIC S. pneumoniae tetM
[11] = test system: E. coli DH10B(pBAD-tetM), expressing tet(M); experiment: MIC against recombinant E. coli expressing tet(M); type: cell-based; conditions: for MIC: Escherichia coli; for Ratio (TetM induced / Uninduced): ratio of MICs
From the text: (§1) Constructs were transformed into E. coli DH10B for expression. Recombinant strains were pre-induced under optimized conditions with L-arabinose prior to use as inocula in CLSI standardized MIC assays.

[12] = test system: E. coli DH10B(pBAD-tetK), expressing tet(K); experiment: MIC against recombinant E. coli expressing tet(K); type: cell-based; conditions: for MIC: Escherichia coli; for MIC ratio, TetK induced to uninduced: ratio of TetK induced to uninduced MIC
From the text: as §1

[13] = test system: S. pneumoniae clinical isolates; experiment: MIC50, MIC90 and MIC range, panel of clinical isolates (Example 20); type: cell-based; conditions: 19 isolates, in µg/mL
Protocol: (§2) The assays were run as follows.
(§3) Both values, as well as the MIC range (the lowest and highest MIC value observed for a collection of organisms), were determined for the isolates listed in Table 3.

[14] = test system: E. faecalis clinical isolates; experiment: as above; type: cell-based; conditions: 24 isolates, in µg/mL
Protocol: as §2, §3

[15] = test system: S. aureus clinical isolates; experiment: as above; type: cell-based; conditions: MRSA, 30 isolates; in µg/mL
Protocol: as §2, §3

[16] = test system: S. aureus ATCC 13709 (Smith); experiment: Mouse systemic infection model, S. aureus septicemia; conditions: mouse septicemia, S. aureus ATCC 13709, intravenous treatment one hour post-challenge, survival after 48 hours
E. coli ATCC 25922 = experiment: Mouse systemic infection model, E. coli septicemia; conditions: mouse septicemia, E. coli ATCC 25922, treatment one hour post-challenge, survival after 48 hours
[17] = test system: S. aureus strains collected from various geographical sources; experiment: MIC50 and MIC90 analysis (Example 22)
[18] = test system: H. influenzae isolates (Eurofins-Medinet, recent clinical isolates); experiment: MIC50 and MIC90 analysis (Example 22)
[19] = test system: Staphylococcus aureus SA100, ATCC 13709, MSSA, Smith strain; experiment: MIC assay, SA100; type: cell-based; conditions: Table 12, read-out: MIC S. aureus ATCC 13709
[20] = ATCC49619, Table 8, read-out: MIC S. pneumoniae ATCC 49619
[21] = Table 8, read-out: MIC E. coli tetA
[22] = Table 8, read-out: MIC E. faecalis tetM
[23] = Table 8, read-out: MIC S. aureus ATCC 29213

MIC [2, 20] [µg/mL]	MIC [3] [µg/mL]	MIC [7, 21] [µg/mL]	MIC [8, 22] [µg/mL]	MIC [9, 23] [µg/mL]	SMILES	TnT IC50 [1] [µg/mL]	MIC ([11]; read-out: MIC, TetM induced) [µg/mL]	MIC ([11]; read-out: MIC, Uninduced) [µg/mL]	Ratio (TetM induced / Uninduced) [11]	MIC ([12]; read-out: MIC, TetK Induced) [µg/mL]	MIC ([12]; read-out: MIC, Uninduced) [µg/mL]	further results
					CCCc1nc(Cl)c2c(c1O)C(=O)C1=C(O)[C@]3(O)C(=O)C(C(N)=O)=C(O)[C@@H](N(C)C)[C@@H]3C[C@@H]1C2 [Compound 104]	5.3						
1 (≈ 2.22 µM)	32 (≈ 71.1 µM)	> 32	> 32	1 (≈ 2.22 µM)	CN(C)[C@@H]1C(O)=C(C(N)=O)C(=O)[C@@]2(O)C(O)=C3C(=O)c4c(O)cnc(Cl)c4C[C@H]3C[C@@H]12 [Compound 123]							MIC [4]: 32 µg/mL (≈ 71.1 µM); MIC [5]: 2 µg/mL (≈ 4.45 µM); MIC [6]: 32 µg/mL (≈ 71.1 µM); MIC [10]: 32 µg/mL (≈ 71.1 µM)
					CO/N=C(\C(=O)N[C@@H]1C(=O)N2C(C(=O)O)=C(CSc3nc(=O)c(=O)[nH]n3C)CS[C@H]12)c1csc(N)n1 [Ceftriaxone, ceftriaxone, reference compound]		0.125	0.0625	2	0.25	0.125	Effect of expression of (tet)M on activity ([11]; result in words): unaffected; MIC ratio, TetK induced to uninduced [12]: 2; Effect of expression of (tet)K on activity ([12]; result in words): unaffected
					CN(C)[C@@H]1C(O)=C(C(N)=O)C(=O)[C@@]2(O)C(O)=C3C(=O)c4c(O)c(NCC(F)(F)F)nc(Cl)c4C[C@H]3C[C@@H]12 [Compound 124]	>4.5	16	4	4	16	8	MIC Range [13]: <=0.016-8; MIC Range [14]: 0.008-4; MIC Range [15]: 0.25-4; MIC ratio, TetK induced to uninduced [12]: 2
					CN(C)[C@@H]1C(O)=C(C(N)=O)C(=O)[C@@]2(O)C(O)=C3C(=O)c4c(O)c(NC(=O)CNC(C)(C)C)nc(Cl)c4C[C@H]3C[C@@H]12 [Compound 132]	0.78						IC50, in vitro transcription/translation system ([1]; E. coli S30 extract, luciferase readout): sub-μg/ml
					CCCc1nc(N(C)C)c2c(c1O)C(=O)C1=C(O)[C@]3(O)C(=O)C(C(N)=O)=C(O)[C@@H](N(C)C)[C@@H]3C[C@@H]1C2 [Compound 141]		32	32	1	32	> 32	MIC Range [13]: 0.25-8; MIC Range [14]: 1-8; MIC Range [15]: 2-4
≤ 0.016	8 (≈ 17.5 µM)	8 (≈ 17.5 µM)	16 (≈ 35 µM)	0.06 (≈ 0.131 µM)	CN(C)c1ccc(O)c2c1C[C@H]1C[C@H]3[C@H](N(C)C)C(O)=C(C(N)=O)C(=O)[C@@]3(O)C(O)=C1C2=O [minocycline, reference compound]							MIC [4]: 0.03 µg/mL (≈ 0.0656 µM); MIC [5]: 0.5 µg/mL (≈ 1.09 µM); MIC [10]: 2 µg/mL (≈ 4.37 µM)

SMILES	MIC [2, 20] [µg/mL]	MIC [3] [µg/mL]	MIC [7, 21] [µg/mL]	MIC [8, 22] [µg/mL]	MIC [9, 23] [µg/mL]	TnT IC50 [1] [µg/mL]	MIC ([11]; read-out: MIC, TetM induced) [µg/mL]	MIC ([11]; read-out: MIC, Uninduced) [µg/mL]	Ratio (TetM induced / Uninduced) [11]	MIC ([12]; read-out: MIC, TetK Induced) [µg/mL]	MIC ([12]; read-out: MIC, Uninduced) [µg/mL]	further results
CN(C)[C@@H]1C(O)=C(C(N)=O)C(=O)[C@@]2(O)C(O)=C3C(=O)c4c(O)cccc4[C@@](C)(O)[C@H]3C[C@@H]12 [Tetracycline, tetracycline, reference compound]	0.063 (≈ 0.142 µM)	64 (≈ 144 µM)	> 64	64 (≈ 144 µM)	0.25 (≈ 0.563 µM)		> 32			> 32		MIC ([2]; ATCC49619, Table 9, read-out: MIC S. pneum ATCC 49619): 0.25 µg/mL (≈ 0.563 µM); PD50 [16]: 0.35 mg/kg; PD50 (E. coli ATCC 25922): 17.0 mg/kg; MIC [6]: 8 µg/mL (≈ 18 µM); MIC Range ([17]; S. aureus (n = 20)): 0.06 to 32 µg/mL; MIC50 ([17]; Staphylococcus aureus): 0.13 µg/mL (≈ 0.293 µM); MIC90 ([17]; Staphylococcus aureus): 0.25 µg/mL (≈ 0.563 µM); MIC ([7]; Table 9, read-out: MIC E. coli EC155 (tet)A): > 32 µg/mL; MIC ([8]; Table 9, read-out: MIC E. faecalis EF159 (tet)M): > 32 µg/mL; MIC ([9]; Table 9, read-out: MIC S. aureus ATCC 29213): 0.5 µg/mL (≈ 1.13 µM); MIC Range ([18]; H. influenzae (n = 12)): 0.25 to 16 µg/mL; MIC50 ([18]; Haemophilus influenzae): 0.5 µg/mL (≈ 1.13 µM); MIC [19]: 0.5 µg/mL (≈ 1.13 µM)
